In US20120129872A1, “FUSED HETEROARYL INHIBITORS OF PRO-MATRIX METALLOPROTEINASE ACTIVATION” (priority 2010, published 2012) one finds Kd and IC50 data, which are given here for 3 molecules.

Where a name gives a salt, the structure may show the parent alone. Where only a bound is given, the exact number is not on record here.

The target of assay [1] is T1, proMMP9(20-445;ΔFnII) (SEQ ID NO:6) (Homo sapiens, UniProt P14780, DEL216-390).
T1 construct: start methionine (N); made in house; host or cells: E. coli BL21(DE3) RIL
T1 sequence (P14780 with tags, fused parts or gaps DEL216-390): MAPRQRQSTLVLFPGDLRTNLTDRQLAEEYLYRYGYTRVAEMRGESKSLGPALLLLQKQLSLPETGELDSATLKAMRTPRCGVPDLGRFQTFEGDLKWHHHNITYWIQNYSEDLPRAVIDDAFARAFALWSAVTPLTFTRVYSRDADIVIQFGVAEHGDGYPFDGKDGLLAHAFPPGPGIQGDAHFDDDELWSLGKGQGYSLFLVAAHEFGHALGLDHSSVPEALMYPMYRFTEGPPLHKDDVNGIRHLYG
Description: ThermoFluor binding assay with proMMP9(20-445;ΔFnII). As to the method: (§1) The ThermoFluor® (TF) assay is a 384-well plate-based binding assay that measures thermal stability of proteins (Biomol Screen 2001, 6, 429-40; Biochemistry 2005, 44, 5258-66). The experiments were carried out using instruments available from Johnson & Johnson Pharmaceutical Research & Development, LLC. TF dye used in all experiments was […] (1,8-ANS) (Invitrogen: A-47).
(§2) Compounds were arranged in a pre-dispensed plate (Greiner Bio-one: 781280), wherein compounds were serially diluted in 100% DMSO across 11 columns within a series. Columns 12 and 24 were used as DMSO reference and contained no compound. For multiple compound concentration-response experiments, the compound aliquots ([…]) were robotically predispensed directly into black 384-well polypropylene PCR microplates (Abgene: TF-0384/k) using a Cartesian Hummingbird liquid handler (DigiLab, Holliston, Mass.). Following compound dispense, protein and dye solutions were added to achieve the final assay volume of 3 μL. The assay solutions were overlayed with 1 μL of silicone oil (Fluka, type DC 200: 85411) to prevent evaporation.
(§3) Assay plates were robotically loaded onto a thermostatically controlled PCR-type thermal block and then heated from 40 to 90° C. at a ramp-rate of 1° C./min for all experiments. Fluorescence was measured by continuous illumination with UV light (Hamamatsu LC6) supplied via fiber optics and filtered through a band-pass filter (380-400 nm; >60D cutoff). Fluorescence emission of the entire 384-well plate was detected by measuring light intensity using a CCD camera (Sensys, Roper Scientific) filtered to detect 500±25 nm, resulting in simultaneous and independent readings of all 384 wells. A single image with 20-sec exposure time was collected at each temperature, and the sum of the pixel intensity in a given area of the assay plate was recorded vs temperature and fit to standard equations to yield the Tm (J Biomol Screen 2001, 6, 429-40).
(§4) Thermodynamic parameters necessary for fitting compound binding for each proMMP were estimated by differential scanning calorimetry (DSC) and from ThermoFluor® data. The heat capacity of unfolding for each protein was estimated from the molecular weight and from ThermoFluor® dosing data.
ThermoFluor® with proMMP9(20-445;ΔFnII (SEQ ID NO:6)
The protein sample preparations included a desalting buffer exchange step via a PD-10 gravity column (GE Healthcare). The desalting buffer exchange was performed prior to diluting the protein to the final assay concentration of 2.8 μM proMMP9(20-445;ΔFnII) (SEQ ID NO:6). The concentration of proMMP9(20-445;ΔFnII) (SEQ ID NO:6) was determined spectrophotometrically based on a calculated extinction coefficient of ε280=39880 M^−1 cm^−1, a calculated molecular weight of 28.2 kDa, and calculated pI of 5.5. ThermoFluor® reference conditions were define as follows: 80 μg/mL (2.8 μM) proMMP9(20-445;ΔFnII) (SEQ ID NO:6), 50 μM 1,8-ANS, pH 7.0 Buffer (50 mM HEPES pH 7.0, 100 mM NaCl, 0.001% Tween-20, 2.5 mM MgCl2, 300 μM CaCl2). The thermodynamic parameters for proMMP9(20-445;ΔFnII) (SEQ ID NO:6) are as follows: Tm (° C.)=72 (+/−0.1), ΔUH(Tm) (cal mol^−1)=160000(+/−5000), ΔUS(Tm) (cal mol^−1 K^−1)=434, ΔUCp (cal mol^−1 K^−1)=2400.
A general note: DSF heats the sample and reads unfolding from a dye or from intrinsic fluorescence.

The target in assay [2] is T2, full-length proMMP9(1-707) (SEQ ID NO:1), activation by catalytic MMP3 (Homo sapiens, UniProt P14780, R574P).
T2 construct: made in house; host or cells: HEK293 (transient, secreted)
Description: ProMMP9/MMP3 DQ Gelatin Activation Assay. It is filed as biochemical. The note with it: read-out: ProMMP9/MMP3 DQ gel Activation Assay, IC50. From the text:
ProMMP9/MMP3 DQ Gelatin Activation Assay

Assay [3] addresses T3, proMMP9(67-444;ΔFnII) (SEQ ID NO:5) (Homo sapiens, UniProt P14780, DEL216-390).
T3 construct: start methionine (N); made in house; host or cells: E. coli BL21(DE3) RIL
T3 sequence (P14780 with tags, fused parts or gaps DEL216-390): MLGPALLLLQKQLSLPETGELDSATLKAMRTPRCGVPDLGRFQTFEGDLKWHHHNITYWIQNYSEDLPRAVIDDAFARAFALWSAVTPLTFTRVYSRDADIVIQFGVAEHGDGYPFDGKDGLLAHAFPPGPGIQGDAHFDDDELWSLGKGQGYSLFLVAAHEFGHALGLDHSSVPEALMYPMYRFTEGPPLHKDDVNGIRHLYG
Description: ThermoFluor binding assay with proMMP9(67-444;ΔFnII). As to the method:
as §1, §2, §3, §4
ThermoFluor® with proMMP9(67-444;ΔFnII (SEQ ID NO:5)
The protein sample preparations had to include a desalting buffer exchange step via a PD-10 gravity column (GE Healthcare). The desalting buffer exchange was performed prior to diluting the protein to the final assay concentration of 3.5 μM proMMP9(67-444;ΔFnII) (SEQ ID NO:5). The concentration of proMMP9(67-444;ΔFnII) (SEQ ID NO:5) was determined spectrophotometrically based on a calculated extinction coefficient of ε280=33900 M^−1 cm^−1, a calculated molecular weight of 22.6 kDa, and calculated pI of 5.20. ThermoFluor® reference conditions were defined as follows: 80 μg/mL (3.5 μM) proMMP9(67-444;ΔFnII) (SEQ ID NO:5), 50 μM 1,8-ANS, pH 7.0 Buffer (50 mM HEPES pH 7.0, 100 mM NaCl, 0.001% Tween-20, 2.5 mM MgCl2, 300 μM CaCl2). The thermodynamic parameters for proMMP9(67-444;ΔFnII) (SEQ ID NO:5) are as follows: Tm (° C.)=63 (+/−0.1), ΔUH(Tm) (cal mol^−1)=105000(+/−5000), ΔUS(Tm) (cal mol^−1 K^−1)=450, ΔuCp (cal mol^−1 K^−1)=2000.

Assay [4] concerns the target T2, full-length proMMP9(1-707) (SEQ ID NO:1), activation by catalytic MMP3. Kind of assay: proMMP9/MMP3 P126 Activation Assay. In kind it is biochemical. As to the method: proMMP9/MMP3 P126 Activation Assay
The reaction volume was 50 μL. […] Reactivity of residual MMP3 towards P-126 substrate was minimal under these conditions.

Assay [5] has as its target T4, proMMP13(1-268) (SEQ ID NO:7), activation by plasmin (Homo sapiens, UniProt P45452).
T4 construct: 6×-histidine tag (C); made in house; host or cells: HEK293 (transient, secreted)
Description: ProMMP13/Plasmin P126 Activation Assay. It is filed as biochemical. The method, then:
ProMMP13/Plasmin P126 Activation Assay
On the day of assay, proMMP13(1-268) (SEQ ID NO:7) purified from HEK293 cells and plasmin were diluted to 160 nM and 320 nM, respectively, in assay buffer. The reaction volume was 50 μL. […] The plate was sealed and incubated for 40 min at 37° C. […] Plasmin was not reactive towards P-126 substrate under these conditions.

In assay [6] the target is T5, proMMP13(1-268) (SEQ ID NO:7) (Homo sapiens, UniProt P45452).
T5 construct: 6×-histidine tag (C); made in house; host or cells: HEK293 (transient, secreted)
Kind of assay: ThermoFluor binding assay with proMMP13(1-268). As to the method:
as §1, §2, §3, §4
ThermoFluor® with proMMP13(1-268) (SEQ ID NO: 7)
The proMMP13(1-268) (SEQ ID NO:7) protein sample preparations included a desalting buffer exchange step via a PD-10 gravity column (GE Healthcare). The desalting buffer exchange was performed prior to diluting the protein to the final assay concentration of 3.5 μM. The concentration of proMMP13(1-268) (SEQ ID NO:7) was estimated spectrophotometrically based on a calculated extinction coefficient of ε280=37000 M^−1 cm^−1, a calculated molecular weight of 30.8 kDa, and calculated pI of 5.33. ThermoFluor® reference conditions were defined as follows: 100 μg/mL proMMP13(1-268) (SEQ ID NO:7), 25 μM 1,8-ANS, pH 7.0 Buffer (50 mM HEPES pH 7.0, 100 mM NaCl, 0.001% Tween-20, 2.5 mM MgCl2, 300 μM CaCl2). The thermodynamic parameters for proMMP13(1-268) (SEQ ID NO:7) are as follows: Tm (° C.)=67 (+/−0.1), ΔUH(Tm) (cal mol^−1)=107000(+/−5000), ΔUS(Tm) (cal mol^−1 K^−1)=318, ΔUCp (cal mol^−1 K^−1)=2600.

T2 sequence (P14780 20-707 R574P): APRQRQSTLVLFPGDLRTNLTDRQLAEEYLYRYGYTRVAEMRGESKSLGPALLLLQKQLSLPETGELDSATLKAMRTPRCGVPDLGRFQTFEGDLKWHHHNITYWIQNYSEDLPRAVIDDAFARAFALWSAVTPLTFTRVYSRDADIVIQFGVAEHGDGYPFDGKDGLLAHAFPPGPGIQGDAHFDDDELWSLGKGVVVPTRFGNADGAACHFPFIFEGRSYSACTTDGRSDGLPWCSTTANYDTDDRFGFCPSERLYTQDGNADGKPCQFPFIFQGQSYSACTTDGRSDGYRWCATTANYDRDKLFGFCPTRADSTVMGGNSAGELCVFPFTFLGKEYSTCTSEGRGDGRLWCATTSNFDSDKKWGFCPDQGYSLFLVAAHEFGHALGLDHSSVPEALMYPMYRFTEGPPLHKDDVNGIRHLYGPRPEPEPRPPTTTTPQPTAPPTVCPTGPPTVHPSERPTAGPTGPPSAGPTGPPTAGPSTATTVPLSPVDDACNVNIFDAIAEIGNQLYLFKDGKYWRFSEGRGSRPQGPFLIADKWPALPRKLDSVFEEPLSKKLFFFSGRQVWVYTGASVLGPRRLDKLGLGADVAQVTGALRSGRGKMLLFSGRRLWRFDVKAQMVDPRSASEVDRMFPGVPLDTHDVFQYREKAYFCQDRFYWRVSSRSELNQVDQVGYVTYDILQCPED

By Kd is commonly meant the free concentration of one partner at which half of the binding sites on the other are occupied at equilibrium, for simple one-to-one binding. Higher therefore signals a looser complex. Regarding `COc1ccc([N+](=O)[O-])cc1Nc1nc(-c2cnc3ccccn23)cs1` [Example 28, (4-Imidazo[1,2-a]pyridin-3-yl-thiazol-2-yl)-(2-methoxy-5-nitro-phenyl)-amine], the Kd in assay [1] was more than 29 µM; in assay [3], more than 28 µM. Besides, the IC50 in assay [2] is 5 µM.

`CC(C)Oc1ccc(C(N)=O)cc1Nc1nc(-c2ccc3c(c2)ncn3C)cs1` [Example 8, 4-Isopropoxy-3-[4-(1-methyl-1H-benzoimidazol-5-yl)-thiazol-2-ylamino]-benzamide]: the Kd in assay [1] is 0.03 µM; in assay [3] it was 0.33 µM. The IC50 amounted to 0.15 µM in assay [4] and 0.9 µM in assay [5].

`CC(C)Oc1ccc(C(N)=O)cc1Nc1nc(-c2nc3ccccc3n2C)cs1` [Example 4, 4-Isopropoxy-3-[4-(1-methyl-1H-benzoimidazol-2-yl)-thiazol-2-ylamino]-benzamide•TFA]: the Kd in assay [1] is 16 µM; in assay [6] it was 13 µM; in assay [3] it was 9.8 µM. The IC50 in assay [4] is approximately 7 µM.
